In ChEMBL document CHEMBL1139251, “Urea based CCR3 antagonists employing a tetrahydro-1,3-oxazin-2-one spacer” (Bioorg Med Chem Lett, 2009):

How the values were obtained:
[1] = biological target: T1, C-C chemokine receptor type 3 (Homo sapiens, UniProt P51677); experiment: Binding affinity to CCR3 receptor
T1 sequence (P51677 whole entry): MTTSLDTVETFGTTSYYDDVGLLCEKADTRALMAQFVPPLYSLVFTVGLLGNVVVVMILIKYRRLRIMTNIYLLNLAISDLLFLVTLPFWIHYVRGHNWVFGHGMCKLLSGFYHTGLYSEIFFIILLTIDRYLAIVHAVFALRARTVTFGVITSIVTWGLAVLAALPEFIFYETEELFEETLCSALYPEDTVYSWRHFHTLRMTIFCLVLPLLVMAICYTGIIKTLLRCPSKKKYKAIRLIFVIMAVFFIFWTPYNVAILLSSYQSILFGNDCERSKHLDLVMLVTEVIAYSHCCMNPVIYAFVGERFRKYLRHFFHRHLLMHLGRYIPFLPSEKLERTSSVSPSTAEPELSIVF

Eosinophil = experiment: Induction of shape change in human eosinophils by flow cytometry; format: functional, cell-based
Cytochrome P450 2D6 = Cytochrome P450 2D6 (Homo sapiens, UniProt P10635); experiment: Inhibition of CYP2D6; format: ADME
Sequence of Cytochrome P450 2D6 (P10635 whole entry): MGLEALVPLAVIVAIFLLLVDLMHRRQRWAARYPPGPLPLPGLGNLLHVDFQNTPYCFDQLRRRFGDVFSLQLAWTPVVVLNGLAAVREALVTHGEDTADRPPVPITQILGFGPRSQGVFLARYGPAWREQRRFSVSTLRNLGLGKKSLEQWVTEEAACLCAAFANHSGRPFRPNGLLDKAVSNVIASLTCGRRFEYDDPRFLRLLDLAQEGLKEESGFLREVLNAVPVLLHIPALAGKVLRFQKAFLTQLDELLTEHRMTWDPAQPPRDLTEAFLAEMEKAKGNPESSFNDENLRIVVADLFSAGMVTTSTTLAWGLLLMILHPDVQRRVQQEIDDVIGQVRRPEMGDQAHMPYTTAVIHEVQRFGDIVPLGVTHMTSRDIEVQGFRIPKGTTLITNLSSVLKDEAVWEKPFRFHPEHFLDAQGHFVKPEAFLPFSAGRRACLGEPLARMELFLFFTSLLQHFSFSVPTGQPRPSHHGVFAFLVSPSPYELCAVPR

[2] = biological target: Voltage-gated inwardly rectifying potassium channel KCNH2 (Homo sapiens, UniProt Q12809); experiment: Inhibition of human ERG by calcium-flux based assay
Sequence of Voltage-gated inwardly rectifying potassium channel KCNH2 (Q12809 whole entry): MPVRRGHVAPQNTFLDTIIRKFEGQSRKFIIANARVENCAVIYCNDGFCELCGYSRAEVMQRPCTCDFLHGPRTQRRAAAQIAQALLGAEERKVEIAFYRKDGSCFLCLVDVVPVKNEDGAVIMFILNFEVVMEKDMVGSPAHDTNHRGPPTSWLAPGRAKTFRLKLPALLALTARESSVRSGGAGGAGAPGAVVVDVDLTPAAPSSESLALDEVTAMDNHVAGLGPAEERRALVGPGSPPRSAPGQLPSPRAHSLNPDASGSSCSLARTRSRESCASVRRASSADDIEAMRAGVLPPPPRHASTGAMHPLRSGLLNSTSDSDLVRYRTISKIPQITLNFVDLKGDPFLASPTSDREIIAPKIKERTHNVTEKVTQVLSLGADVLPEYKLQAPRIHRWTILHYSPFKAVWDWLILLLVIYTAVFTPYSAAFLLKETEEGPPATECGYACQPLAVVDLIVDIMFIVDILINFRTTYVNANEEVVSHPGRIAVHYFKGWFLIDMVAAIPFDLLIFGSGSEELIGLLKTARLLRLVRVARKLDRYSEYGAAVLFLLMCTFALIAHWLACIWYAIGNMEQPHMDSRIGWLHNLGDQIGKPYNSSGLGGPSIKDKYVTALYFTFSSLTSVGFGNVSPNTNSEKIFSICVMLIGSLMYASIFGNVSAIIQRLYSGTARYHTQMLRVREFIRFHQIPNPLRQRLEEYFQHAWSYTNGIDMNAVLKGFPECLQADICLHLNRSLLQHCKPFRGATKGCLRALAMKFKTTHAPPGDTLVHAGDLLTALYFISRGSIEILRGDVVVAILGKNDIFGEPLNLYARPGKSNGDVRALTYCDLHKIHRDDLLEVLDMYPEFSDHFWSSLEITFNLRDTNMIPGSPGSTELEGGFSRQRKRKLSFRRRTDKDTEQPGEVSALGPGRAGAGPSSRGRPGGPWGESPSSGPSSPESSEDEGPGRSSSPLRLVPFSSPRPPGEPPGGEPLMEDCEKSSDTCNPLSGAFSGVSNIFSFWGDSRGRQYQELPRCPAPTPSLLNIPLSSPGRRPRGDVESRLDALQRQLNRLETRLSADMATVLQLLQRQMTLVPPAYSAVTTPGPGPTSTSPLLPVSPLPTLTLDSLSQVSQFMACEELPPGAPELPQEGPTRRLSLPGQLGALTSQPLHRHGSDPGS

Liver microsomes = experiment: Metabolic stability in human liver microsomes; format: ADME, Microsome

Row | SMILES | IC50 [1] [nM] | IC50 (Eosinophil; Homo sapiens, Eosinophil) [nM] | IC50 (Cytochrome P450 2D6) [nM] | also measured
1 | CCN(CCCc1ccc(F)cc1)CC1OC(=O)N(C)CC1(C)NC(=O)Nc1cccc(-c2nnnn2C)c1 (mixture of isomers; 23b) | 0.47 | > 3 | 14000 | –
2 | Cc1csc(NC(=O)NC2(C)CN(C)C(=O)OC2CN2CCC[C@@H](Cc3ccc(F)cc3)C2)n1 (mixture of isomers; 20b) | 0.37 | 3.4 | 2100 | –
3 | CN1C[C@@H](NC(=O)Nc2cccc(-c3nnnn3C)c2)[C@H](CN(CCCc2ccc(F)cc2)C2CC2)OC1=O | 2.1 | 2.2 | – | –
4 | Cc1csc(NC(=O)NC2(C)CN(C)C(=O)OC2CN2CCC[C@@H](Cc3ccc(F)cc3)C2)n1 (mixture of isomers; 20a) | 5.4 | – | – | –
5 | C[C@@H](NC(=O)Nc1cccc(-c2nnnn2C)c1)[C@@H](O)CN1CCC[C@@H](Cc2ccc(F)cc2)C1 | – | 0.038 | – | Ki (Cytochrome P450 2D6): 2600 nM
6 | CN1C[C@@H](NC(=O)Nc2cccc(-c3nnnn3C)c2)[C@H](CN2CCC[C@@H](Cc3ccc(F)cc3)C2)OC1=O | 0.23 | – | 4300 | –
7 | CN1CC(C)(NC(=O)Nc2cccc(-c3nnnn3C)c2)C(CN2CCC[C@@H](Cc3ccc(F)cc3)C2)OC1=O (mixture of isomers; 19a) | 0.12 | – | 33000 | IC50 (Eosinophil; eosinophil): 2.4 nM
8 | CN1CC(C)(NC(=O)Nc2cccc(-c3nnnn3C)c2)C(CN2CCC[C@@H](Cc3ccc(F)cc3)C2)OC1=O.Cl (mixture of isomers; 19b) | 0.15 | – | 17000 | IC50 [2]: 15700 nM; Stability (Liver microsomes): Unstable; IC50 (Eosinophil; eosinophil): 0.13 nM
9 | CCCN(CCCc1ccc(F)cc1)C[C@@H]1OC(=O)N(C)C[C@H]1NC(=O)Nc1nc(C)cs1 | 9.2 | – | – | –
10 | CN1CC(C)(NC(=O)Nc2nc(C(C)(C)C)cs2)C(CN2CCC[C@@H](Cc3ccc(F)cc3)C2)OC1=O (mixture of isomers; 22a) | 44 | – | – | –
11 | CCN(CCCc1ccc(F)cc1)CC1OC(=O)N(C)CC1(C)NC(=O)Nc1cccc(-c2nnnn2C)c1 (mixture of isomers; 23a) | 0.18 | – | 5900 | IC50 (Eosinophil; eosinophil): 4.4 nM
12 | CC(=O)c1sc(NC(=O)NC2(C)CN(C)C(=O)OC2CN2CCC[C@@H](Cc3ccc(F)cc3)C2)nc1C (mixture of isomers) | 1.1 | – | 21000 | –
13 | CN1CC(C)(NC(=O)Nc2nc(C(C)(C)C)cs2)C(CN2CCC[C@@H](Cc3ccc(F)cc3)C2)OC1=O (mixture of isomers; 22b) | 5.5 | – | 40000 | –
